Values of other authors in EP0665714B1, “GRANULAR WATER SOLUBLE OR HYGROSCOPIC AGRICULTURAL FORMULATIONS AND METHODS OF MAKING THEM” (BASF CORPORATION, priority 1992, dated 1994).

Settings: in general

Compound: C[N+]1(C)CCCCC1.[Cl-] [mepiquat chloride, 1,1-dimethylpiperidinium chloride]
- water solubility: more than 600 g/l
